Assays:
Type in all cases: toxicity, cell-based
HEK-293T = assay: Incucyte cell viability with HEK293T; conditions: human, 10 µM, compound concentration 10 uM
Fibroblast = assay: Incucyte cell viability with human fibroblast; conditions: 10 µM, compound concentration 10 uM
U2OS = assay: Incucyte cell viability with U2OS; conditions: human, 10 µM, compound concentration 10 uM
Also: unitless GR value; below 1 slowed growth and below 0 cell loss.

| SMILES | Growth Rate (HEK-293T; 0 h, replicate number 1) | Growth Rate (HEK-293T; 0 h, replicate number 2) | Growth Rate (HEK-293T; 18 h, replicate number 1) | Growth Rate (HEK-293T; 18 h, replicate number 2) | Growth Rate (HEK-293T; 24 h, replicate number 1) | Growth Rate (Fibroblast; 0 h, replicate number 1) | Growth Rate (Fibroblast; 6 h, replicate number 1) | Growth Rate (Fibroblast; 6 h, replicate number 2) | Growth Rate (Fibroblast; 12 h, replicate number 2) | Growth Rate (Fibroblast; 18 h, replicate number 2) | Growth Rate (Fibroblast; 24 h, replicate number 2) | Growth Rate (U2OS; 0 h, replicate number 1) | Growth Rate (U2OS; 6 h, replicate number 1) | Growth Rate (U2OS; 12 h, replicate number 1) | Growth Rate (U2OS; 12 h, replicate number 2) | Growth Rate (U2OS; 18 h, replicate number 1) | Growth Rate (U2OS; 18 h, replicate number 2) | Growth Rate (U2OS; 24 h, replicate number 1) | Growth Rate (Fibroblast; 18 h, replicate number 1) | Growth Rate (Fibroblast; 24 h, replicate number 1) | also measured |
| --- | --- | --- | --- | --- | --- | --- | --- | --- | --- | --- | --- | --- | --- | --- | --- | --- | --- | --- | --- | --- | --- |
| C[C@@H](CN1CC[C@@]2(C)c3cccc(O)c3C[C@@H]1C2(C)C)OCc1ccccc1.Cl | 0.44 | -0.22 | 0.77 | 0.95 | 0.8 | -1 | 0.03 | -0.28 | 0.93 | 1 | 0.98 | -0.32 | 0.53 | 0.61 | 0.78 | 0.81 | 0.98 | 0.79 | – | – | Growth Rate (HEK-293T; 6 h, replicate number 1): 0.31; Growth Rate (HEK-293T; 12 h, replicate number 1): 0.74; Growth Rate (HEK-293T; 24 h, replicate number 2): 0.96; Growth Rate (U2OS; 6 h, replicate number 2): 0.85 |
| CN1C(=O)Cc2ccc(-c3ccc(C[C@@H](C#N)NC(=O)[C@H]4N[C@@H]5CC[C@H]4C5)c(F)c3)cc21 | 0.62 | – | 0.94 | 0.88 | 0.87 | -1 | 0.56 | -0.72 | 0.43 | 0.5 | 0.85 | – | 0.49 | – | – | – | – | – | 0.72 | 0.86 | Growth Rate (HEK-293T; 12 h, replicate number 1): 0.89; Growth Rate (HEK-293T; 12 h, replicate number 2): 0.82; Growth Rate (HEK-293T; 24 h, replicate number 2): 0.95; Growth Rate (Fibroblast; 12 h, replicate number 1): 0.65 |
| COc1cc(-c2cn(C)c(=O)c3cnccc23)c(OC)cc1CN(C)C | 0.44 | – | 0.77 | 0.68 | 0.68 | – | 0.79 | 0.69 | 0.23 | 0.53 | 0.5 | 0.29 | 0.38 | 0.8 | – | – | – | 0.97 | 0.8 | 0.8 | Growth Rate (HEK-293T; 6 h, replicate number 2): 0.24; Growth Rate (HEK-293T; 12 h, replicate number 2): 0.4; Growth Rate (HEK-293T; 24 h, replicate number 2): 0.77; Growth Rate (Fibroblast; 12 h, replicate number 1): 0.84 |
| COc1cc(-c2cn(C)c(=O)c3cnccc23)cc(OC)c1CN(C)C | 0.56 | – | 0.85 | 0.89 | 0.92 | 0.17 | 0.2 | -0.34 | 0.15 | 0.6 | 0.85 | 0.83 | 0.87 | 0.86 | 0.85 | – | – | 0.97 | 0.56 | 0.58 | Growth Rate (HEK-293T; 6 h, replicate number 1): 0.78; Growth Rate (HEK-293T; 6 h, replicate number 2): 0.89; Growth Rate (Fibroblast; 12 h, replicate number 1): 0.48; Growth Rate (U2OS; 6 h, replicate number 2): 0.61 |
| CSc1nc2c(c(=O)n(C)c(=O)n2C)n1C | 0.12 | – | – | 1 | – | -1 | 0.03 | -0.57 | – | – | 0.92 | 0.57 | 0.84 | – | 0.74 | – | 0.86 | – | 0.87 | 0.71 | Growth Rate (HEK-293T; 6 h, replicate number 2): -0.14; Growth Rate (HEK-293T; 12 h, replicate number 2): 0.78; Growth Rate (Fibroblast; 0 h, replicate number 2): -0.52; Growth Rate (Fibroblast; 12 h, replicate number 1): 0.58; Growth Rate (U2OS; 6 h, replicate number 2): 0.49; Growth Rate (U2OS; 24 h, replicate number 2): 0.97 |
| COCCOCn1c(S(C)(=O)=O)nc2c1c(=O)n(C)c(=O)n2C | 0.35 | 0.7 | 0.74 | 0.92 | 0.86 | -1 | -0.48 | -0.97 | 0.03 | 0.24 | 0.7 | 0.81 | 0.11 | 0.55 | – | 0.93 | – | 0.76 | 0.05 | 0.45 | Growth Rate (HEK-293T; 24 h, replicate number 2): 0.9; Growth Rate (Fibroblast; 12 h, replicate number 1): 0 |
| Cc1nnc2n1-c1sc3c(c1C(c1ccccc1Cl)=NC2)C[C@H](C(=O)N1CCOCC1)C3 | -0.2 | -0.35 | – | – | – | – | – | -0.71 | 0.19 | 0.64 | 0.94 | – | 0.8 | – | 0.83 | – | 0.93 | 0.94 | – | – | Growth Rate (HEK-293T; 6 h, replicate number 1): 0.78; Growth Rate (U2OS; 24 h, replicate number 2): 0.93 |
| Cc1cc(CN)cc(C)c1-c1ncn(C)c1-c1cncn1C.Cl | -0.38 | 0.26 | 0.98 | – | – | -1 | 0.96 | -0.33 | 0.59 | 0.77 | 0.86 | – | – | – | 0.69 | – | 0.99 | – | – | – | – |
| CO[C@H](C)CN1CC[C@@]2(C)c3ccc(O)cc3C[C@@H]1C2(C)C.Cl | 0.75 | 0.63 | – | – | – | – | 0.46 | 0.74 | – | – | – | – | 0.63 | 0.93 | 0.77 | 0.87 | – | 0.87 | 0.79 | 0.96 | Growth Rate (Fibroblast; 0 h, replicate number 2): 0.54; Growth Rate (Fibroblast; 12 h, replicate number 1): 0.6; Growth Rate (U2OS; 0 h, replicate number 2): 0.71; Growth Rate (U2OS; 6 h, replicate number 2): 0.94; Growth Rate (U2OS; 24 h, replicate number 2): 0.82 |
| CC1CCN(C(=O)[C@H](CCn2cccc2C#N)NS(=O)(=O)c2cccc3[nH]ccc23)CC1 | -0.16 | 0.25 | – | – | – | – | – | – | 0.9 | – | 0.84 | 0.73 | 0.98 | 0.91 | 0.81 | 0.99 | 0.91 | 0.98 | – | – | Growth Rate (HEK-293T; 12 h, replicate number 1): 0.92; Growth Rate (U2OS; 0 h, replicate number 2): 0.6; Growth Rate (U2OS; 24 h, replicate number 2): 0.97 |
| COCCN(C)c1ccc(NC(=O)/C=C(\C)c2ccc3ccccc3c2)c(C(=O)O)c1 | 0.87 | -0.37 | – | – | – | – | – | – | – | – | – | 0.79 | 0.9 | 0.72 | 0.92 | 0.88 | – | 0.91 | – | – | Growth Rate (Fibroblast; 0 h, replicate number 2): -0.29 |
| CC(C)(c1ccc(OCc2cccc(COc3ccc(C(=N)N)cc3)c2)cc1)c1ccc(O[C@@H]2O[C@H](C(=O)O)[C@@H](O)[C@H](O)[C@H]2O)cc1.O=C(O)C(F)(F)F | 0.51 | -0.08 | 0.87 | – | 1 | -1 | 0.34 | – | – | – | 0.92 | 0.36 | 0.61 | 0.97 | 0.68 | -0.41 | 0.89 | – | – | 0.88 | Growth Rate (U2OS; 0 h, replicate number 2): -0.17; Growth Rate (U2OS; 6 h, replicate number 2): 0.56 |
| C/C(=C\C(=O)Nc1ccccc1C(=O)[O-])c1ccc2ccccc2c1.[Na+] | 0.79 | 0.69 | – | – | – | – | 0.57 | -0.21 | 0.94 | – | – | 0.38 | 0.69 | 0.95 | – | 0.83 | – | 0.94 | 0.97 | 0.83 | Growth Rate (Fibroblast; 0 h, replicate number 2): -0.44 |
| CCn1c(CNC(=O)c2nc(Cl)cnc2N)[n+](CC)c2ccc(C(=O)N(C)CCN(C)C)cc21.[Cl-] | 0.65 | 0.44 | – | 0.77 | – | – | – | -0.24 | 0.59 | 0.7 | 0.96 | 0.81 | 0.28 | 0.84 | – | – | – | 0.84 | – | – | Growth Rate (HEK-293T; 6 h, replicate number 2): 0.55; Growth Rate (HEK-293T; 12 h, replicate number 2): 0.57; Growth Rate (HEK-293T; 24 h, replicate number 2): 0.84; Growth Rate (Fibroblast; 0 h, replicate number 2): -0.38; Growth Rate (U2OS; 6 h, replicate number 2): 0.97 |
| N=C(N)NCCC[C@H](NC(=O)C(c1ccccc1)c1ccccc1)C(=O)NCc1ccc(CNC(N)=O)cc1.O=C(O)C(F)(F)F | 0.26 | – | – | – | – | -1 | – | -0.57 | 0.52 | 0.75 | 0.58 | – | 0.97 | – | 0.88 | – | – | 0.96 | – | 0.9 | – |
| N=C(N)NCCC[C@@H](NC(=O)C(c1ccccc1)c1ccccc1)C(=O)NCc1ccc(CNC(N)=O)cc1.O=C(O)C(F)(F)F | 0.56 | – | – | 0.96 | – | -1 | 0.82 | – | 0.86 | 0.94 | 0.91 | 0.07 | 0.44 | 0.7 | 0.87 | 0.92 | 0.99 | 0.86 | – | – | Growth Rate (HEK-293T; 12 h, replicate number 2): 0.76; Growth Rate (HEK-293T; 24 h, replicate number 2): 0.9; Growth Rate (Fibroblast; 0 h, replicate number 2): 0.49 |

Reference: ChEMBL document CHEMBL5303304, “EUbOPEN Chemogenomics Library - IncuCyte” (2023)
